According to patent US12037334B2, “Inhibitors of VAP-1” (ACUCELA INC., priority 2018, dated 2024):

How the values were obtained:
Assay type in all cases: biochemical
rhMAO-B = target: T1, rhMAO-B (Homo sapiens, UniProt P27338); assay: MAO Assay (modified Promega MAO-Glo), MAO-B inhibition; settings: substrate 1 μM, 1 hour at room temperature
T1 construct: purchased Sigma
T1 sequence (P27338 1-520): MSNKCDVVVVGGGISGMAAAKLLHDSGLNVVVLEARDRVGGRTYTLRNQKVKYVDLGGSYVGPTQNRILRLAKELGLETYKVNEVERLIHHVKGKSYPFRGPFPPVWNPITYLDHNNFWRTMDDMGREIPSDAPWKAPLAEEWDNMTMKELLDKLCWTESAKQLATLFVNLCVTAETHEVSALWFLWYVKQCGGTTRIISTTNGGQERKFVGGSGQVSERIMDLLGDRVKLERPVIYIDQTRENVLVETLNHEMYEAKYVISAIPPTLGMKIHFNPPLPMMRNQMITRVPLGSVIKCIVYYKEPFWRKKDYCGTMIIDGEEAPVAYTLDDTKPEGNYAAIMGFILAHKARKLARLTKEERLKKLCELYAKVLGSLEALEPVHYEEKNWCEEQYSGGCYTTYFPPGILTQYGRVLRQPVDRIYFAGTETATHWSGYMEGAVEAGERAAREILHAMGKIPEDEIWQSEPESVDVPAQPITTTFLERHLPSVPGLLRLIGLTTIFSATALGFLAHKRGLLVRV
Method: (§1) The capability of compounds described herein to inhibit MAO was determined using a modified Promega MAO-Glo™ assay kit. The substrate ((4S)-4,5-dihydro-2-(6-hydroxybenzothiazolyl)-4-thiazolecarboxylic acid) was converted by MAO to produce methyl ester luciferin. The luciferin was then converted by luciferase to produce oxyluciferin and light. The light was measured using a luminescence setting on the plate reader. A standard curve was prepared by serially diluting luciferin in reaction buffer. The standard kit reaction buffer was used—100 mM HEPES (pH 7.5), 5% glycerol. The substrate was dispensed into the wells so that the final concentration for MAO-A inhibition assay would be 10 μM and MAO-B inhibition assay would be 1 μM. Inhibitors were diluted in DMSO to 4× and distributed to the appropriate wells. Clorgyline and Deprenyl served as positive controls. rhMAO-A and rhMAO-B were purchased from Sigma. MAO-A or MAO-B was added to the appropriate wells. The plate was incubated for 1 hour, at room temperature with gentle shaking (90 rpm). The detection agent was added at equal volume (48 μL detection agent to 48 μL reaction). The plate was incubated for 20 minutes, at room temperature with gentle shaking (90 rpm). The plate luminescence was read. Data processing was performed using Prism software.
(§2) The capability of compounds described herein to inhibit MAO was determined using a modified Promega MAO-Glo™ assay. Test compounds, substrate and enzyme were incubated per manufacturer instructions for lhour, at room temperature with gentle shaking (90 rpm) before addition of detection agent. The detection agent was added at equal volume (48 μL detection agent to 48 μL reaction). The plate was incubated for 20 minutes, at room temperature with gentle shaking (90 rpm). The plate luminescence was read. Data processing was performed using Prism software.

rhMAO-A = target: T2, rhMAO-A (Homo sapiens, UniProt P21397); assay: MAO Assay (modified Promega MAO-Glo), MAO-A inhibition; settings: substrate 10 μM, 1 hour at room temperature
T2 construct: purchased Sigma
T2 sequence (P21397 1-527): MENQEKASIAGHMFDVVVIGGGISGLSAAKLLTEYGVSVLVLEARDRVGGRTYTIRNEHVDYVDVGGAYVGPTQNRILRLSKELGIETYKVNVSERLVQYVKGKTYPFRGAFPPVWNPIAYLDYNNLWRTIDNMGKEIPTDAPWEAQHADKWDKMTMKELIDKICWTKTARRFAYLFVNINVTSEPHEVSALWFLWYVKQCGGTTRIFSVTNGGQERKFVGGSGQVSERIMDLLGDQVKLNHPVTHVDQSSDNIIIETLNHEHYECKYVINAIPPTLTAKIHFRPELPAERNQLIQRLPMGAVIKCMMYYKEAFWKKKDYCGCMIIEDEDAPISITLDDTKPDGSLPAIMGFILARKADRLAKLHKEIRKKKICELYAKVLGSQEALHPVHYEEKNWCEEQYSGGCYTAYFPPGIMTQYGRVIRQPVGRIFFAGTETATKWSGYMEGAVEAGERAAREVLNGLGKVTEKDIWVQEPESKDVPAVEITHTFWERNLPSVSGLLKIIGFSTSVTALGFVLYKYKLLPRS
Method: as §1, §2

rhVAP-1 = target: T3, rhVAP-1 (Homo sapiens, UniProt Q16853); assay: VAP-1 Assay (fluorometric, Amplex Red/HRP, benzylamine substrate); settings: rhVAP-1, benzylamine 50 μM, 30 minutes at 37° C., 10 mM NaHCO3 pH 7.4
T3 construct: purchased R&D Systems
T3 sequence (Q16853 1-763): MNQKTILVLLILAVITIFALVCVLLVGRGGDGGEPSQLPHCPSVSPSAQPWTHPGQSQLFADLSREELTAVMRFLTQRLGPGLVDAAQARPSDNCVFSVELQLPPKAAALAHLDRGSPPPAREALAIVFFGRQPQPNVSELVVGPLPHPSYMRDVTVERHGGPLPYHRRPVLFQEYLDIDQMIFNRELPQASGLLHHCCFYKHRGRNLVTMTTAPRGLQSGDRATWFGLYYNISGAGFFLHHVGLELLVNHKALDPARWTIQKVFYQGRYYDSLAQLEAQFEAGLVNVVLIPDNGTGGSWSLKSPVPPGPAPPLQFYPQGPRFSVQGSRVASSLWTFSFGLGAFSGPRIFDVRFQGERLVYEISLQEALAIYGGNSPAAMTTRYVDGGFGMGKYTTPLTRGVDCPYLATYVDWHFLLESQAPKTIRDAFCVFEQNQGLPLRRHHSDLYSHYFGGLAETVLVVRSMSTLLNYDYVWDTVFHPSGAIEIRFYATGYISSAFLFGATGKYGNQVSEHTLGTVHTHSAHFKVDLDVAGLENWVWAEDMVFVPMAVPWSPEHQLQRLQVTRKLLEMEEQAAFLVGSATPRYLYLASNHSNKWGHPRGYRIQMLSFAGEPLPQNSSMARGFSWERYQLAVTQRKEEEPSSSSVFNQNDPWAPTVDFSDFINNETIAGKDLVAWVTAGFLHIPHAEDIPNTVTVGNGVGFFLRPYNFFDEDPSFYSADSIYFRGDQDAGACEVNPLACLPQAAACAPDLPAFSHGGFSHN
Method: The capability of compounds described herein to inhibit the enzymatic activity of vascular adhesion protein-1 (VAP-1) was determined by fluorometric assay. The assay procedure provided by R&D Systems was modified slightly for use as an inhibitor screening assay. The assay measured the H2O2 generated from the oxidative deamination of benzylamine by rhVAP-1 by converting Amplex® Red to the fluorescent product, resorufin, via horseradish peroxidase (HRP) and H2O2. Reaction buffer was 10 mM NaHCO3, pH 7.4. A standard curve was prepared by serially diluting H2O2 in reaction buffer. A 10 μM solution of resorufin was prepared in reaction buffer and was dispensed to 2 wells. These wells served as positive control for maximum fluorescence. Reaction buffer was added to the individual wells so that the final volume in each well was 100 μL. Amplex Red was diluted to 1 mM in reaction buffer. A 10U stock of HRP was prepared in reaction buffer. A reaction cocktail was prepared by mixing equal parts 1 mM Amplex Red with 10U HRP with 3 parts reaction buffers. The reaction cocktail was added to the appropriate wells, so that that final concentration in the well was 0.05 mM Amplex Red and 0.5U HRP. A 200 μM solution of benzylamine was prepared in reaction buffer. Benzylamine was added to the appropriate wells so that the final concentration was 50 μM. Inhibitors were diluted in DMSO to 20× and distributed to the appropriate wells. UP-1207 served a positive control. rhVAP-1 was purchased from R&D Systems. The concentration used for each lot was determined so that the activity was equal to the first lot. Two wells were left blank as controls. The plate was incubated for 30 minutes at 37° C., protected from light under foil. The plate was read at 530/35 emission and 590/35 excitation. Data processing was performed using Excel and Prism software.
The capability of compounds described herein to inhibit the enzymatic activity of vascular adhesion protein-1 (VAP-1) was determined by fluorometric assay. The assay procedure provided by R&D Systems was modified slightly for use as an inhibitor screening assay. The assay measured the H2O2 generated from the oxidative deamination of benzylamine by rhVAP-1 by converting Amplex® Red to the fluorescent product, resorufin, via horseradish peroxidase (HRP) and H2O2. Amplex Red, HRP, Benzylamine, inhibitors (with DMSO as vehicle, 0.5% v/v) and rhVAP-1 were added to the wells. Assay was conducted in 10 mM NaHCO3, pH 7.4. A standard curve was prepared by serially diluting H2O2 in reaction buffer. The plate was incubated for 30 minutes at 37° C., protected from light under foil. The plate was read at 530/35 emission and 590/35 excitation. Data processing was performed using Prism software.

SMILES	IC50 (rhMAO-B)	IC50 (rhMAO-A; class symbols)	IC50 (rhVAP-1)	IC50 (rhMAO-A; cells printed as bound in μM)
CCCCc1cn2cc(OC/C(=C\F)CN)ccc2n1 [Example 5, (Z)-2-(((2-butylimidazo[1,2-a]pyridin-6-yl)oxy)methyl)-3-fluoroprop-2-en-1-amine 4-methylbenzenesulfonate]	1000 to 10000 nM	10 to 30 µM	< 100 nM	
CCCCc1cc2cc(OC/C(=C/F)CN)ccn2n1 [Example 8, (E)-2-(((2-butylpyrazolo[1,5-a]pyridin-5-yl)oxy)methyl)-3-fluoroprop-2-en-1-amine bis(4-methylbenzenesulfonate)]	100 to 1000 nM	1 to 10 µM	< 100 nM	
CCCCc1cc2ccc(OC/C(=C/F)CN)cn2n1 [Example 6]	100 to 1000 nM	10 to 30 µM	< 100 nM	
CCCCc1cn2cc(OC/C(=C/F)CN)ccc2n1 [Example 1, (E)-2-(((2-butylimidazo[1,2-a]pyridin-6-yl)oxy)methyl)-3-fluoroprop-2-en-1-amine bis(4-methylbenzenesulfonate)]	1000 to 10000 nM	10 to 30 µM	< 100 nM	
NC/C(=C/F)COc1ccc2nc(C3CCCC3)cn2c1 [Example 9, (Z)-2-(((2-cyclopentylimidazo[1,2-a]pyridin-6-yl)oxy)methyl)-3-fluoroprop-2-en-1-amine 4-methylbenzenesulfonate]	1000 to 10000 nM	1 to 10 µM	< 100 nM	
CCCCc1cn2cc(OC/C(=C/F)CNC(=O)OC(C)(C)C)cnc2n1 [Example 10, tert-butyl (E)-(2-(((2-butylimidazo[1,2-a]pyrimidin-6-yl)oxy)methyl)-3-fluoroallyl)carbamate]	1000 to 10000 nM		< 100 nM	> 50 µM
CCCCc1cn2nc(OC/C(=C/F)CN)ccc2n1 [Example 7, (E)-2-(((2-butylimidazo[1,2-b]pyridazin-6-yl)oxy)methyl)-3-fluoroprop-2-en-1-amine 4-methylbenzenesulfonate]	100 to 1000 nM		< 100 nM	> 50 µM

Continued, values first:

IC50 (rhMAO-B)	IC50 (rhMAO-A; class symbols)	IC50 (rhVAP-1)	IC50 (rhMAO-A; cells printed as bound in μM)	SMILES
10000 to 30000 nM	10 to 30 µM	< 100 nM		CCCCc1cn2ccc(OC/C(=C/F)CN)cc2n1 [Example 2, (E)-2-(((2-butylimidazo[1,2-a]pyridin-7-yl)oxy)methyl)-3-fluoroprop-2-en-1-amine 4-methylbenzenesulfonate]
1000 to 10000 nM	10 to 30 µM	< 100 nM		CCCCc1nc2cc(OC/C(=C/F)CN)ccn2n1 [Example 3, (E)-2-(((2-butyl-[1,2,4]triazolo[1,5-a]pyridin-7-yl)oxy)methyl)-3-fluoroprop-2-en-1-amine 4-methylbenzenesulfonate]
100 to 1000 nM	10 to 30 µM	< 100 nM		CCCCc1nc2ccc(OC/C(=C/F)CN)cn2n1 [Example 4, (E)-2-(((2-butyl-[1,2,4]triazolo[1,5-a]pyridin-6-yl)oxy)methyl)-3-fluoroprop-2-en-1-amine 4-methylbenzenesulfonate]
